Where only a bound is given, the exact number is not on record here.

The results in this text go back to patent US20150175585A1, “FUSED QUINONIC COMPOUNDS” (CENTRO ATLANTICO DEL MEDICAMENTO S.A (CEAMED, S.A.), priority 2012, published 2015).

The subject of one assay is HEL cells. The experiment in a line: HEL-based MTT cell viability assay. The conditions noted are these: Homo sapiens, 48 h, read-out: Activity (IC50, reduction of cell viability). Further details: species or system human.
The subject of another assay is K562 tumors. Put plainly: In vivo efficacy, K562 tumor xenografts in NOD-SCID mice. The conditions noted are these: 10 mg/kg i.p. daily except Saturdays and Sundays, 25 day study; P=0.004 day 4, P=0.007 day 25. The text has this:
Mice were sacrificed when their tumor diameters reached 2 cm, or when they became moribund.

The subject of the next assay is K562 cells. The experiment in a line: K562-based MTT cell viability assay. Also noted: species or system human. Particulars: Homo sapiens, 48 h, read-out: Activity (IC50, reduction of cell viability). As to the method: Cell viability was assayed by measuring the mitochondrial reduction of the tetrazolium salt 3-(4,5-methyltiazol-2yl)-2,5diphenyl-tetrazolium bromide] (MTT) (Applichen; A2231,0010) (Mosmann T. J Immunol Methods. 1983 16; 65(1-2):55-63; Chuan Y-C et al 2010. Oncogene. 29 (10), 1531-1542. Cells were seeded in 96-well plates in medium supplemented with 10% FBS (Lonza Cat. No: 14-502F), 2 mM L-Glut (Lonza Cat. No: BE17-605E) and 100 U/ml PEST (Lonza Cat. No: DE17-605E) at a cell density of 5000-20000 cells/well. Cells were seeded at a density according to their exponential growth phase. Vehicle (0.05% DMSO) or drug were added to culture medium at the indicated concentrations (10 to 0.01 microM) during 48 h. Then, MTT (0.3 mg/ml) was added to cells following by incubation for 2-4 h at 37° C. in the dark. The medium was then discarded and the formazan precipitate was solubilized by addition of 20% SDS (Sigma; L-5750) in 0.02N HCl (Panreac; 131020.1611) for 12-16 h. The optical density was measured at 595 nm with the iMark Microplate Reader (BioRad, USA). Data was expressed as percent growth above the level in controls and the results in figures were plotted as means±SEM of each test point from 3 replicates.
Statistical analysis. The concentration of drug that provokes 50% reduction of cell viability (IC50) was determined by using non-linear regression analysis and data were fitted to a log concentration vs normalized response curve in GraphPad software v5 (San Diego, Calif.).

The subject of another assay is STAT5. Put plainly: STAT5 phosphorylation western blot assay. Type of assay: cell-based, human. The conditions noted are these: 10 microM, HEL or K562 cells (table does not say which).

Regarding `N#Cc1ccc(C2C3=C(CCCC3=O)OC3=C2C(=O)c2ccccc2C3=O)cc1` (stereo not shown) [Compound 4, 4-(1,6,11-trioxo-2,3,4,6,11,12-hexahydro-1H-benzo[b]xanthen-12-yl)benzonitrile], the IC50 with HEL cells was below 3 µM; in the assay with K562 cells it was below 1 µM. In addition, in the assay with K562 tumors, the “tumor growth (tumor volume) compared to control group” value was “pronounced, and statistically significant reduction”. In addition, the “Activity (inhibition of STAT5 phosphorylation)” value with STAT5 is “+++ (+++represents an inhibition at 10 microM > 75%)”.
